From patent US9296698B2, “Amino heteroaryl compounds as beta-secretase modulators and methods of use” (Amgen Inc., priority 2009, dated 2016)
Where two headings read alike, the source gives them in different places.

Experiments:
[1] = target: BACE 1 (Beta Secretase enzyme) (Homo sapiens, UniProt P56817); assay: In vitro enzymatic BACE FRET assay; format: biochemical
How it was run: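 BACE activity read by FRET: peptide substrate (50 nM) carrying fluorophore and quencher across the cleavage site, incubated one hour in 0.05 M acetate pH 4.2, 10% DMSO final, 100 uM genapol. Tris addition raises pH to neutrality to stop the reaction before fluorescence is read.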

[2] = test system: Aβ40 in conditioned medium of cells stably expressing Amyloid Precursor Protein (APP); assay: In vitro BACE cell-based assay (HEK cell assay), Aβ40 sandwich ELISA
How it was run: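 Cells stably expressing APP received 10-point compound dilutions (top 100 μM or 10 μM; 0.1% DMSO) for 24 h. Secreted Aβ40 was quantified by sandwich ELISA (pAb40 capture, biotinylated 6E10 detection, europium time-resolved fluorescence). IC50 was derived from percent inhibition versus concentration.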

[3] = IC50 range symbols, Table 1, read-out: BACE 1 FRET assay
[4] = Homo sapiens, HEK293, 24 h, IC50 range symbols, Table 1, Aβ40, 24 h incubation, read-out: HEK cell assay
[5] = IC50 range symbols, Table 1, Aβ40, 24 h incubation, read-out: HEK cell assay

Chain of BACE 1 (Beta Secretase enzyme) (P56817 46-501, species assumed): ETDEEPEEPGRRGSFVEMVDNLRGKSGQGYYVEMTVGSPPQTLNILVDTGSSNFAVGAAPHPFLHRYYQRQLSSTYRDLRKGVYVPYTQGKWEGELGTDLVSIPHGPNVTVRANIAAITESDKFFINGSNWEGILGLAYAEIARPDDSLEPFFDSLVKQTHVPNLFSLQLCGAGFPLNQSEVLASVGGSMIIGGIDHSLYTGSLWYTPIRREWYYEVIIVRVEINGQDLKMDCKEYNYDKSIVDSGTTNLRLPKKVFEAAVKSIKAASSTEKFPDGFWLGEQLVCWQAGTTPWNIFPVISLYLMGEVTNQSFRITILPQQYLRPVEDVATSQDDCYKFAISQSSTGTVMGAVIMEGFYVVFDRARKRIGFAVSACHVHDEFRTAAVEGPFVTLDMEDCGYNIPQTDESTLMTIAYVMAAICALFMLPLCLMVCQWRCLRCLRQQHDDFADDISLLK

Molecule	IC50 [1, 3]	IC50 [2, 4]	IC50 [2, 5]	IC50 ([1]; bound stated, read-out: IC50 value in the FRET BACE enzyme assay)	IC50 ([2]; Homo sapiens, HEK293, bound stated in text, read-out: IC50 value in the BACE cell-based in-vitro assay)
Cc1cccc(C(=O)N2CCCC2)c1-c1ccc2nc(N)c(CC(C)C(=O)NCc3ccccn3)cc2c1 (centres unmarked) [Example 149, 3-(2-amino-6-(2-methyl-6-(pyrrolidine-1-carbonyl)phenyl)quinolin-3-yl)-2-methyl-N-(pyridin-2-ylmethyl)propanamide]	< 500 nM	< 500 nM			
Cc1ccccc1-c1cc2cc(CC(C)C(=O)NCCC(F)(F)F)c(N)nc2cn1 (centres unmarked) [Example 137, 3-(2-amino-6-o-tolyl-1,7-naphthyridin-3-yl)-2-methyl-N-(3,3,3-trifluoropropyl)propanamide]	< 500 nM	> 5000 nM			
COCCNC(=O)CCc1cc2cc(-c3ccccc3C)ccc2nc1N [Example 18, 3-(2-amino-6-o-tolylquinolin-3-yl)-N-(2-methoxyethyl)propanamide]	< 500 nM	> 5000 nM			
COc1ccccc1[C@@H](C)NC(=O)C(C)Cc1cc2cc(-c3ccccc3C)ccc2nc1N (stereo partly drawn) [Example 129, 3-(2-amino-6-o-tolylquinolin-3-yl)-N-((R)-1-(2-methoxyphenyl)ethyl)-2-methylpropanamide]	< 500 nM		1000 to 5000 nM		
CC(Cc1cc2cc(-c3ncccc3CCN3CCOCC3)ccc2nc1N)C(=O)NCCC(C)(C)C (centres unmarked) [Example 123, 3-(2-amino-6-(3-(2-morpholinoethyl)pyridin-2-yl)quinolin-3-yl)-N-(3,3-dimethylbutyl)-2-methylpropanamide]	< 500 nM	< 500 nM			
CNC(=O)C(C)Cc1cc2cc(-c3ccccc3C(C)=O)ccc2nc1N (centres unmarked) [Example 154, 3-(6-(2-acetylphenyl)-2-aminoquinolin-3-yl)-N,2-dimethylpropanamide]	> 5000 nM	> 5000 nM			
Cc1cccnc1-c1cc2cc(CC(C)C(=O)NCC3CCOCC3)c(N)nc2cc1F (centres unmarked) [Example 97, 3-(2-amino-7-fluoro-6-(3-methyl-2-pyridinyl)-3-quinolinyl)-2-methyl-N-(tetrahydro-2H-pyran-4-ylmethyl)propanamide]	< 500 nM	1000 to 5000 nM			
CC(Cc1cc2cc(-c3cccc(Cl)c3Cl)ccc2nc1N)C(=O)NC1CCOC(C)(C)C1 (centres unmarked) [Example 159, 3-(2-amino-6-(2,3-dichlorophenyl)quinolin-3-yl)-N-(2,2-dimethyltetrahydro-2H-pyran-4-yl)-2-methylpropanamide]	< 500 nM	< 500 nM			
CCC1CCN1C(=O)C(C)Cc1cc2cc(-c3ncccc3C)ccc2nc1N (centres unmarked) [Example 118, 3-(2-amino-6-(3-methylpyridin-2-yl)quinolin-3-yl)-1-(2-ethylazetidin-1-yl)-2-methylpropan-1-one]	> 5000 nM	> 5000 nM			
Cc1ccccc1-c1cc2cc(CCC(=O)NCCC(C)(C)C)c(N)nc2cn1 [Example 135, 3-(2-amino-6-o-tolyl-1,7-naphthyridin-3-yl)-N-(3,3-dimethylbutyl)propanamide]	< 500 nM	> 5000 nM		< 50 nM	
Cc1ccccc1-c1ccc2nc(N)c(CC(C)C(=O)NCC3CCCOC3)cc2c1 (centres unmarked) [Example 92, 3-(2-amino-6-o-tolylquinolin-3-yl)-2-methyl-N-((tetrahydro-2H-pyran-3-yl)methyl)propanamide]	< 500 nM	< 500 nM			
Cc1ccccc1-c1ccc2nc(N)c(C(C)CC(=O)NCC3CCCCC3)cc2c1 (centres unmarked) [Example 6, 3-(2-amino-6-o-tolylquinolin-3-yl)-N-(cyclohexylmethyl)butanamide]	< 500 nM	> 5000 nM			
CC(=O)c1ccccc1-c1ccc2nc(N)c(CC(C)C(=O)NC3CCOC(C)(C)C3)cc2c1 (centres unmarked) [Example 143, 3-(6-(2-acetylphenyl)-2-amino-3-quinolinyl)-N-(2,2-dimethyltetrahydro-2H-pyran-4-yl)-2-methylpropanamide]	< 500 nM	< 500 nM			
CC(Cc1cc2cc(C3CC3C)ccc2nc1N)C(=O)NCCC(C)(C)C (centres unmarked) [Example 7, 3-(2-amino-6-(2-methylcyclopropyl)quinolin-3-yl)-N-(3,3-dimethylbutyl)-2-methylpropanamide]	< 500 nM	1000 to 5000 nM			
CNC(=O)C(C)Cc1cc2cc(-c3ccccc3C(=O)C3CCCCC3)ccc2nc1N (centres unmarked) [Example 157, 3-(2-amino-6-(2-(cyclohexanecarbonyl)phenyl)quinolin-3-yl)-N,2-dimethylpropanamide]	< 500 nM	500 to 1000 nM			
COC(Cc1cc2cc(-c3ccccc3C)ccc2nc1N)C(=O)NCC1CCCCC1 (centres unmarked) [Example 71, 3-(2-amino-6-o-tolylquinolin-3-yl)-N-(cyclohexylmethyl)-2-methoxypropanamide]	< 500 nM	1000 to 5000 nM			
Cc1ccccc1-c1ccc2nc(N)c(CCCNC(=O)C3CCCCC3)cc2c1 [Example 48, N-(3-(2-amino-6-o-tolylquinolin-3-yl)propyl)cyclohexanecarboxamide]	< 500 nM	1000 to 5000 nM			
CC(=O)c1ccccc1-c1ccc2nc(N)c(CC(C)C(=O)Nc3ccccc3)cc2c1 (centres unmarked) [Example 152, 3-(6-(2-acetylphenyl)-2-aminoquinolin-3-yl)-2-methyl-N-phenylpropanamide]	< 500 nM	< 500 nM			
Cc1ccccc1-c1ccc2nc(N)c(CCC(=O)NC3CCOC(C)(C)C3)cc2c1 (centres unmarked) [Example 163, 3-(2-amino-6-(2-methylphenyl)-3-quinolinyl)-N-(-2,2-dimethyltetrahydro-2H-pyran-4-yl)propanamide]	< 500 nM	< 500 nM			< 100 nM
3-(3-amino-7-o-tolylnaphthalen-2-yl)-N-(pyridin-2-ylmethyl)propanamide [Example 36]	< 500 nM		1000 to 5000 nM		
N-(2-methoxybenzyl)-3-(3-amino-7-o-tolylnaphthalen-2-yl)propanamide [Example 61]	1000 to 5000 nM		> 5000 nM		
Cc1ccccc1-c1ccc2nc(N)c(C[C@@H](C)C(=O)NCc3ncccn3)cc2c1 [Example 85, (R)-3-(2-amino-6-o-tolylquinolin-3-yl)-2-methyl-N-(pyrimidin-2-ylmethyl)propanamide]	< 500 nM	< 500 nM			
Cc1ccc(-c2ccc3nc(N)c(CC(C)C(=O)NCC4CCCCC4)cc3c2)c(F)n1 (centres unmarked) [Example 107, 3-(2-amino-6-(2-fluoro-6-methylpyridin-3-yl)quinolin-3-yl)-N-(cyclohexylmethyl)-2-methylpropanamide]	1000 to 5000 nM	1000 to 5000 nM			
3-(2-amino-6-o-tolylquinolin-3-yl)-N-(tetrahydro-2H-pyran-4-yl)propanamide [Example 16]	1000 to 5000 nM		1000 to 5000 nM		
CC(C)c1ccccc1-c1ccc2nc(N)c(CCC(=O)NCC3CCCCC3)cc2c1 [Example 72, 3-(2-amino-6-(2-isopropylphenyl)quinolin-3-yl)-N-(cyclohexylmethyl)propanamide]	< 500 nM	> 5000 nM			
CCc1ccccc1-c1ccc2nc(N)c(CCC(=O)NCC3CCCCC3)cc2c1 [Example 49, 3-(2-amino-6-(2-ethylphenyl)quinolin-3-yl)-N-(cyclohexylmethyl)propanamide]	< 500 nM	1000 to 5000 nM			
Nc1nc2ccc(-c3cscn3)cc2cc1CCC(=O)NCC1CCCCC1 [Example 2, 3-(2-amino-6-(thiazol-4-yl)quinolin-3-yl)-N-(cyclohexylmethyl)propanamide]	1000 to 5000 nM	> 5000 nM			
